The text below walks through data of publication PMC12706794, “Identification and Characterization of a Small-Molecule Inhibitor of the Pseudomonas aeruginosa SOS Response” (ACS Infectious Diseases, 2025).

Data set [1] concerns the target T1, RecAPa (Pseudomonas aeruginosa, UniProt P08280).
T1 construct: made in house; host or cells: E. coli BL21(DE3)
Briefly: Differential scanning fluorimetry (thermal shift) on RecAPa. It is filed as binding, P. aeruginosa. The settings on record: read-out: RecAPa ΔTm compared to the control. The protocol: (§1) To elucidate whether A12 binds RecAPa or LexAPa, the two proteins were submitted to a thermal shift assay by DSF, in the presence of different concentrations of A12 (30–1000 μM; Figure A–C). Controls devoid of A12 were included, as well.
(§2) Fluorescence of the SyproOrange dye was measured by a StepOne Real-Time PCR System (Applied Biosystems), while increasing the temperature from 25 to 95 °C (0.5 °C/min). Normalized fluorescence intensity curves were compared to observe macroscopic differences in the recorded melting profiles, while derivative curves were analyzed to find exact protein melting temperatures (T m, corresponding to derivative curve minimum). Melting curves were repeated twice, and duplicates were considered coherent if T m differences were lower than 1 °C.
Target sequence in this assay (P08280 2-346): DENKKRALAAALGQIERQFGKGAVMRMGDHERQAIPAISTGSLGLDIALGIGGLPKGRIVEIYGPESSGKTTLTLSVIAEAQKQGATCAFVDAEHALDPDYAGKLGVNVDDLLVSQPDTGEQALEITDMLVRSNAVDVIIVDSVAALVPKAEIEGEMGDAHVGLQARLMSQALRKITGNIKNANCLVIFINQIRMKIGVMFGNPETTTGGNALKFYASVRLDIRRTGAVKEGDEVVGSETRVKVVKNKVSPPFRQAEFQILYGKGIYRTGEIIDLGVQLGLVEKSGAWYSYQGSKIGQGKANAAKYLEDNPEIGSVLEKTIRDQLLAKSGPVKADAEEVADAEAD
For orientation: DSF heats the sample and reads unfolding from a dye or from intrinsic fluorescence.

For another data set, the system named is A549 cells. In words: Cytotoxicity assessment by MTT assay, A549. The data set is classed as cell-based, Human. Particulars: combination of ciprofloxacin 0.5 μg/mL and A12 100 μg/mL, 3 h. The procedure: A549 cells were seeded in flat-bottom 96-well plates at 5 × 10^4 cells/well. THP-1 monocytes were differentiated into macrophages using PMA as described above, rested in PMA-free medium, detached by trypsinization, and seeded at 5 × 10^4 cells/well. Plates were incubated overnight to allow cell attachment. […] Test medium was then removed and replaced with fresh medium containing 0.5 mg/mL 3-(4,5-dimethylthiazol-2-yl)-2,5-diphenyltetrazolium bromide (MTT). After a 2 h incubation, the medium was discarded, formazan crystals were solubilized with 100 μL of DMSO, and absorbance was measured at 570 nm using a spectrophotometer (Varioskan LUX Multimode Microplate Reader, Thermo Fisher Scientific). Cell viability was expressed as a percentage relative to the untreated controls.

The next data set concerns the target T2, LexAPa S125A (Pseudomonas aeruginosa, UniProt P37452, S125A).
T2 construct: Concerning full-length LexAPa ^S125A, a biphasic melting curve was obtained for the pure protein; made in house; host or cells: E. coli BL21(DE3)
Briefly: Differential scanning fluorimetry (thermal shift) on LexAPa S125A. It is filed as binding, P. aeruginosa. The settings on record: A12 above 100 μM. The protocol:
as §1, §2

The target of data set [2] is T1, RecAPa. In words: ESI-MS analysis of RecAPa preincubated with A12. The settings on record: 2 mM A12, 2 h at 25 °C; condensation, Lys285. The data set is classed as binding, P. aeruginosa. The procedure: Then, ESI-MS analysis was carried out on both RecAPa and LexAPa alone and preincubated with A12 (referred to as RecAPa-A12 and LexAPa-A12, respectively).
MS analysis was carried out on 5 μL samples of compound A12 (2 mM), of the proteins 6His-LexAPa and 6His-RecAPa (50 μM), and of the same proteins incubated with 2 mM A12 (2 h incubation at 25 °C, 10% v/v DMSO in 100 mM NaHCO3 pH 7.0). Aliquots of the latter samples were treated with 5 mM dithiothreitol (DTT) for 1 h at 25 °C before being buffer-exchanged in 100 mM NaHCO3 at pH 7.0. Samples were analyzed by an electrospray ionization (ESI) mass spectrometer equipped with a Xevo G2-XS ESI-Q-TOF mass spectrometer (Waters Corporation, Milford, Massachusetts, USA). Measurements were carried out at 1.5–1.8 kV capillary voltage and 30–40 V cone voltage.
Tryptic digestion was obtained at a 1:20 trypsin to protein ratio (by weight) after the incubation of the proteins (6His-LexAPa and 6His-RecAPa) with chemical compound A12. The reaction was left at 37 °C overnight and then stopped by freezing at – 20 °C. Proteolytic mixtures were analyzed by LC–MS, using an Agilent AdvanceBio Peptide Map column (2.1 × 150 mm × 2.7 μm; Santa Clara, CA, USA) connected to an Acquity H-Class instrument (Waters Corporation, Milford, Massachusetts, USA). […]
Target sequence in this assay (P08280 whole entry): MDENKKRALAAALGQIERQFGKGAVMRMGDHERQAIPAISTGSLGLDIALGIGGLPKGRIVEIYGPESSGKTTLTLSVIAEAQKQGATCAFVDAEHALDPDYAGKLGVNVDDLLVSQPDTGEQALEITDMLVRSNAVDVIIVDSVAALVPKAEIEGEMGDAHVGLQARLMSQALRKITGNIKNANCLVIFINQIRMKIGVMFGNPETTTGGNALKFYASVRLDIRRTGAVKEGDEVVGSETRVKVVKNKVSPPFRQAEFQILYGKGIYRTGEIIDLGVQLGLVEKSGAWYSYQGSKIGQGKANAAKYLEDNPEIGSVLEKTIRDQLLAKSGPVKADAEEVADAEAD

Data set [3] has as its target T1, RecAPa. Briefly: Isothermal titration calorimetry on RecAPa. The data set is classed as binding, P. aeruginosa. The procedure: To investigate deeper the binding of A12 to the two members of the P. aeruginosa SOS complex, ITC was performed on RecAPa and LexAPa ^S125A (Figure D,E). The integrated binding isotherms of both proteins were best fitted by a “one set of sites” model.
64 μM RecAPa and 58.5 μM LexAPa ^S125A were titrated with the selected compound (2.5 mM solution) using a Microcal PEAQ-ITC instrument (Malvern Panalytical) at 25 °C with a stirring rate of 750 rpm. Proteins and the ligand were dissolved in ITC Buffer (20 mM Tris–HCl, 150 mM NaCl, 5% v/v DMSO, pH 7.5). An initial 0.4 μL injection (excluded from data analysis) was followed by 24 injections of 1.5 μL with a spacing of 150 s between each addition. Blank experiments were performed by injecting the titrant compound in a protein-devoid ITC Buffer. Blank curves were subtracted from all of the experiments. Data were analyzed by using the MicroCal PEAQ-ITC Evaluation software (Malvern Panalytical). Integrated heat signals were fitted by a “one set of sites” binding model to obtain enthalpy changes (ΔH), dissociation constants (K D), and stoichiometry of binding.
Target sequence in this assay (P08280 whole entry): as above
In general terms: ITC needs no label: the signal is the heat of the interaction.

T2 sequence (P37452 2-204 S125A): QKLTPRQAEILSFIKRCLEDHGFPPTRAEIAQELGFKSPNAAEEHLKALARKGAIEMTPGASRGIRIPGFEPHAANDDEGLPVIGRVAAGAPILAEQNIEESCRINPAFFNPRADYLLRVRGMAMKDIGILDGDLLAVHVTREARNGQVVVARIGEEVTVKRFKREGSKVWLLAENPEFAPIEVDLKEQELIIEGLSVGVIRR

`O=C(O)CCNc1ccccc1S` [A12, 3-(2-sulfanylanilino)propanoic acid]: the ΔTm at 1000 µM at RecAPa [1] is 10 °C. Further, the “Cell viability compared to the untreated control” value in the data set on A549 cells is “higher than 80%”. Moreover, the “LexAPa S125A flexus of monophasic melting curve” value on LexAPa S125A was 52.0 °C. Besides, the “Mass difference of A12-modified RecAPa versus unmodified protein” value at RecAPa [2] is on record as 179 Da. The same molecule registered a Kd on RecAPa [3] of 18 ± 3 µM.

What is called ΔTm is the shift of the melting midpoint relative to a reference. A word on the Kd: it is a measure of binding affinity in units of concentration. High values mean a looser complex, low ones a tighter complex.
